In US4745191A, “1-((A-substituted phenyl-ω-substituted piperazinyl)alkenyl) cyclohexanol” (American Home Products Corporation, priority 1987, dated 1988):
pIC50, pKi: −log10 of the molar value. Read-outs that look alike come from different tables or passages of the source.

Tests used:
5-HT1A receptor = biological target: T1, 5-HT1A receptor (Rattus norvegicus, UniProt P19327); test: inhibition of [3H] 8-hydroxy-2-(di-n-propylamino)tetraline binding at 5-HT1A receptor binding sites in rat hippocampal tissue; details: for inhibition at 1 µM: read-out: Receptor Binding 5HT1A % Inhibition at 1 μM
T1 construct: from tissue; host or cells: rat hippocampal tissue
T1 sequence (P19327 1-422): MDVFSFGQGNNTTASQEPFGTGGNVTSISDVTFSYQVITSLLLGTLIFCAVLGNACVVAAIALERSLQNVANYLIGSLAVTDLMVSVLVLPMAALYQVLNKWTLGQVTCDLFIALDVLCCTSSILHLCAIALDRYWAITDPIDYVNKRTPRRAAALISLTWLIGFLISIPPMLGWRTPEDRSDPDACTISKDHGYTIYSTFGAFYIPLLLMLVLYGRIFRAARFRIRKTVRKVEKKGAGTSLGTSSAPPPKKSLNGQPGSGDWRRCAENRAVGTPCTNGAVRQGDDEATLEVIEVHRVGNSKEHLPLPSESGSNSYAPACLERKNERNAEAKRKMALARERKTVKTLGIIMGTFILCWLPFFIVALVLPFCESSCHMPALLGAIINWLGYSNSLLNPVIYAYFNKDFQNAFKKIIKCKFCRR
From the text: 8-hydroxy-2-(di-n-propylamino)tetraline binding at 5-HT binding sites in rat hippocamphal tissue, following the procedure of Hall et al., J. Neurochem., 44 1685 (1985).

dopamine D2 receptor = biological target: T2, dopamine D2 receptor (Rattus norvegicus, UniProt P61169); test: inhibition of 3H-haloperidol binding at D2 receptors in homogenized limbic brain tissue
T2 construct: D2 receptors found in homogenized limbic brain tissue; from tissue; host or cells: homogenized limbic brain tissue
T2 sequence (P61169 whole entry): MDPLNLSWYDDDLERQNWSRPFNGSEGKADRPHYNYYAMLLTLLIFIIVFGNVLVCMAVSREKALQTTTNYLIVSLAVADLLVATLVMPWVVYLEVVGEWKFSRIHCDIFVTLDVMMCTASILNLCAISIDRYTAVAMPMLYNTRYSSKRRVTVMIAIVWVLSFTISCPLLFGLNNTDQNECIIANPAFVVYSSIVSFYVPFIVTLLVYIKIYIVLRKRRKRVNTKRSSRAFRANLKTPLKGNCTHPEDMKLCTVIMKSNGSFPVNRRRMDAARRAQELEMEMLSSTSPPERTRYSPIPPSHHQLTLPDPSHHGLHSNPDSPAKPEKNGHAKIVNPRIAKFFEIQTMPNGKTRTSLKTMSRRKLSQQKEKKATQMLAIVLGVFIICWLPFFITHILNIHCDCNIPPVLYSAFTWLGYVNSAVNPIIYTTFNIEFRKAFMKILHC
From the text: The actual percentage reduction of ^3 H-haloperidol binding is reported infra and the larger the number, the greater the potential for dopamine D2 receptor binding and antipsychotic activity.

[1] = system: NE (synaptosomal norepinephrine uptake); test: inhibition of synaptosomal uptake of norepinephrine (3H-NE); type: biochemical; details: synaptosomal 3H-NE uptake; for pIC50: read-out: Neuronal Uptake NE IC50
[2] = system: 5HT (synaptosomal serotonin uptake); test: inhibition of synaptosomal uptake of serotonin (14C-5-HT); type: biochemical; details: synaptosomal 14C-5-HT uptake; for pIC50: read-out: Neuronal Uptake 5HT IC50
[3] = at 1 μM, rat hippocampal tissue

inhibition at 1 µM (5-HT1A receptor; [3])	SMILES	inhibition at 1 µM (dopamine D2 receptor)	pIC50 [1]	pKi (5-HT1A receptor; rat hippocampal tissue)	pIC50 [2]	further results
–	O=C1CC2(CCCC2)CC(=O)N1CCCCN1CCN(c2ncccn2)CC1 [Buspirone, reference compound]	–	–	–	–	inhibition at 1 µM (5-HT1A receptor): 97%
–	COc1cccc(C(=CCN2CCN(Cc3ccccc3)CC2)C2(O)CCCCC2)c1 [Example 1, 1-[1-(3-methoxyphenyl)-3-[4-(phenylmethyl)-1-piperazinyl]-1-propenyl]cyclohexanol]	80%	6.19	8.52	5.77	–
–	COc1ccc(C(=CCN2CCN(Cc3ccccc3)CC2)C2(O)CCCCC2)cc1 [Example 2, 1-[1-(4-methoxyphenyl)-3-[4-(phenylmethyl)-1-piperazinyl]-1-propenyl]cyclohexanol]	66%	–	8.40	–	–
–	COc1cccc(C(=CCN2CCN(Cc3cccc(Cl)c3)CC2)C2(O)CCCCC2)c1 [Example 4]	–	–	9.15	–	pKi (dopamine D2 receptor): 7.77; Neuronal Uptake NE % Inhibition at 10 μM ([1]; at 10 μM): 100%; Neuronal Uptake 5HT % Inhibition at 10 μM ([2]; at 10 μM): 100%
99%	COc1cccc(C(=CCN2CCN(Cc3ccc(Cl)cc3)CC2)C2(O)CCCCC2)c1 [Example 5, 1-[3-[4-[(4-chlorophenyl)methyl]-1-piperazinyl]-1-(3-methoxyphenyl)-1-propenyl]cyclohexanol]	76%	–	–	–	–
99%	COc1cccc(C(=CCN2CCN(Cc3ccc(C(F)(F)F)cc3)CC2)C2(O)CCCCC2)c1 [Example 6, 1-[1-(3-methoxyphenyl)-3-[4-[[4-(trifluoromethyl)phenyl]methyl]-1-piperazinyl]-1-propenyl]cyclohexanol]	76%	–	–	–	–
–	COc1cccc(C(=CCN2CCN(c3ncccn3)CC2)C2(O)CCCCC2)c1 [Example 7]	61%	5.32	7.31	5.68	–
–	COc1cccc(C(=CCN2CCN(c3cncc(Cl)n3)CC2)C2(O)CCCCC2)c1 [Example 8, 1-[3-[4-(6-chloro-2-pyrazinyl)-1-piperazinyl]-1-(3-methoxyphenyl)-1-(3-methoxyphenyl)-1-propenyl]cyclohexanol]	–	–	6.86	–	–

SMILES	inhibition at 1 µM (5-HT1A receptor; [3])	inhibition at 1 µM (dopamine D2 receptor)	pIC50 [1]	pKi (5-HT1A receptor; rat hippocampal tissue)	pIC50 [2]	further results
COc1ccc(C(=CCCN2CCN(Cc3ccccc3)CC2)C2(O)CCCCC2)cc1 [Example 10, 1-[1-(4-methoxyphenyl)-4-[4-(phenylmethyl)-1-piperazinyl]-1-butenyl]cyclohexanol]	74%	53%	6.72	–	6.04	–
